{
  "source": "ChEMBL document CHEMBL1201862",
  "about": "“PubChem BioAssay data set” (2004)",
  "test_in_all_cases": "inhibition of tumour cell growth, NCI panel, 48 h",
  "key": {"786-0": {"test_system": "786-0"}, "A498": {"test_system": "A498"}, "A549": {"test_system": "A549"}, "ACHN": {"test_system": "ACHN"}, "BT-549": {"test_system": "BT-549"}, "CAKI-1": {"test_system": "CAKI-1"}, "CCRF-CEM": {"test_system": "CCRF-CEM"}, "COLO 205": {"test_system": "COLO 205"}, "DU-145": {"test_system": "DU-145"}, "EKVX": {"test_system": "EKVX"}, "HCT-116": {"test_system": "HCT-116"}, "HCT-15": {"test_system": "HCT-15"}, "HL-60": {"test_system": "HL-60"}, "HOP-62": {"test_system": "HOP-62"}, "HT-29": {"test_system": "HT-29"}, "Hs-578T": {"test_system": "Hs-578T"}, "IGROV-1": {"test_system": "IGROV-1"}, "K562": {"test_system": "K562"}, "KM12": {"test_system": "KM12"}, "LOX IMVI": {"test_system": "LOX IMVI"}, "M14": {"test_system": "M14"}, "MCF7": {"test_system": "MCF7"}, "MDA-MB-231": {"test_system": "MDA-MB-231"}, "MDA-MB-435": {"test_system": "MDA-MB-435"}, "MOLT-4": {"test_system": "MOLT-4"}, "Malme-3M": {"test_system": "Malme-3M"}, "NCI-H226": {"test_system": "NCI-H226"}, "NCI-H23": {"test_system": "NCI-H23"}, "NCI-H522": {"test_system": "NCI-H522"}, "NCI/ADR-RES": {"test_system": "NCI/ADR-RES"}, "OVCAR-3": {"test_system": "OVCAR-3"}, "OVCAR-4": {"test_system": "OVCAR-4"}, "OVCAR-5": {"test_system": "OVCAR-5"}, "OVCAR-8": {"test_system": "OVCAR-8"}, "PC-3": {"test_system": "PC-3"}, "RPMI-8226": {"test_system": "RPMI-8226"}, "SF-268": {"test_system": "SF-268"}, "SF-295": {"test_system": "SF-295"}, "SF-539": {"test_system": "SF-539"}, "SK-MEL-28": {"test_system": "SK-MEL-28"}, "SK-MEL-2": {"test_system": "SK-MEL-2"}, "SK-MEL-5": {"test_system": "SK-MEL-5"}, "SK-OV-3": {"test_system": "SK-OV-3"}, "SN12C": {"test_system": "SN12C"}, "SNB-19": {"test_system": "SNB-19"}, "SR": {"test_system": "SR"}, "SW-620": {"test_system": "SW-620"}, "T47D": {"test_system": "T47D"}, "TK-10": {"test_system": "TK-10"}, "U-251": {"test_system": "U-251"}, "UACC-257": {"test_system": "UACC-257"}, "UACC-62": {"test_system": "UACC-62"}, "UO-31": {"test_system": "UO-31"}},
  "note": "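All cell lines were grown in 96-well plates and treated with compound for 48 hours. The concentration for 50% growth inhibition is given as GI50.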 Active and inactive are the calls of the source. Cut-off read from the data, not from the text of the source: active = GI50 up to about 1.1 µM and inactive = higher.",
  "data": [
    {"molecule": "CN(C(=O)OC(C)(C)C)[C@H]1CCCC[C@H]1N1CCCC1", "values": [
      {"measurement": "GI50", "setting": "786-0", "result": "> 100 µM (inactive)"},
      {"measurement": "GI50", "setting": "A498", "result": "> 100 µM (inactive)"},
      {"measurement": "GI50", "setting": "A549", "result": "> 100 µM (inactive)"},
      {"measurement": "GI50", "setting": "ACHN", "result": "> 100 µM (inactive)"},
      {"measurement": "GI50", "setting": "BT-549", "result": "> 100 µM (inactive)"},
      {"measurement": "GI50", "setting": "CAKI-1", "result": "> 100 µM (inactive)"},
      {"measurement": "GI50", "setting": "CCRF-CEM", "result": "0.0129 µM (active)"},
      {"measurement": "GI50", "setting": "COLO 205", "result": "> 100 µM (inactive)"},
      {"measurement": "GI50", "setting": "DU-145", "result": "> 100 µM (inactive)"},
      {"measurement": "GI50", "setting": "EKVX", "result": "> 100 µM (inactive)"},
      {"measurement": "GI50", "setting": "HCT-116", "result": "> 100 µM (inactive)"},
      {"measurement": "GI50", "setting": "HCT-15", "result": "> 100", "unit": "µM"},
      {"measurement": "GI50", "setting": "HL-60", "result": "5.81 µM (inactive)"},
      {"measurement": "GI50", "setting": "HOP-62", "result": "> 100 µM (inactive)"},
      {"measurement": "GI50", "setting": "HT-29", "result": "> 100 µM (inactive)"},
      {"measurement": "GI50", "setting": "Hs-578T", "result": "> 100 µM (inactive)"},
      {"measurement": "GI50", "setting": "IGROV-1", "result": "> 100 µM (inactive)"},
      {"measurement": "GI50", "setting": "K562", "result": "> 100 µM (inactive)"},
      {"measurement": "GI50", "setting": "KM12", "result": "> 100 µM (inactive)"},
      {"measurement": "GI50", "setting": "LOX IMVI", "result": "> 100 µM (inactive)"},
      {"measurement": "GI50", "setting": "M14", "result": "> 100 µM (inactive)"},
      {"measurement": "GI50", "setting": "MCF7", "result": "> 100 µM (inactive)"},
      {"measurement": "GI50", "setting": "MDA-MB-231", "result": "> 100 µM (inactive)"},
      {"measurement": "GI50", "setting": "MDA-MB-435", "result": "> 100 µM (inactive)"},
      {"measurement": "GI50", "setting": "MOLT-4", "result": "> 100 µM (inactive)"},
      {"measurement": "GI50", "setting": "Malme-3M", "result": "> 100 µM (inactive)"},
      {"measurement": "GI50", "setting": "NCI-H226", "result": "> 100 µM (inactive)"},
      {"measurement": "GI50", "setting": "NCI-H23", "result": "> 100 µM (inactive)"},
      {"measurement": "GI50", "setting": "NCI-H522", "result": "> 100 µM (inactive)"},
      {"measurement": "GI50", "setting": "NCI/ADR-RES", "result": "> 100 µM (inactive)"},
      {"measurement": "GI50", "setting": "OVCAR-3", "result": "> 100 µM (inactive)"},
      {"measurement": "GI50", "setting": "OVCAR-4", "result": "> 100 µM (inactive)"},
      {"measurement": "GI50", "setting": "OVCAR-5", "result": "> 100 µM (inactive)"},
      {"measurement": "GI50", "setting": "OVCAR-8", "result": "> 100 µM (inactive)"},
      {"measurement": "GI50", "setting": "PC-3", "result": "> 100 µM (inactive)"},
      {"measurement": "GI50", "setting": "RPMI-8226", "result": "> 100 µM (inactive)"},
      {"measurement": "GI50", "setting": "SF-268", "result": "> 100 µM (inactive)"},
      {"measurement": "GI50", "setting": "SF-295", "result": "> 100 µM (inactive)"},
      {"measurement": "GI50", "setting": "SF-539", "result": "> 100 µM (inactive)"},
      {"measurement": "GI50", "setting": "SK-MEL-28", "result": "> 100 µM (inactive)"},
      {"measurement": "GI50", "setting": "SK-MEL-2", "result": "> 100 µM (inactive)"},
      {"measurement": "GI50", "setting": "SK-MEL-5", "result": "> 100 µM (inactive)"},
      {"measurement": "GI50", "setting": "SK-OV-3", "result": "> 100 µM (inactive)"},
      {"measurement": "GI50", "setting": "SN12C", "result": "> 100 µM (inactive)"},
      {"measurement": "GI50", "setting": "SNB-19", "result": "> 100 µM (inactive)"},
      {"measurement": "GI50", "setting": "SR", "result": "> 100 µM (inactive)"},
      {"measurement": "GI50", "setting": "SW-620", "result": "> 100 µM (inactive)"},
      {"measurement": "GI50", "setting": "T47D", "result": "> 100 µM (inactive)"},
      {"measurement": "GI50", "setting": "TK-10", "result": "> 100 µM (inactive)"},
      {"measurement": "GI50", "setting": "U-251", "result": "> 100 µM (inactive)"},
      {"measurement": "GI50", "setting": "UACC-257", "result": "53.7 µM (inactive)"},
      {"measurement": "GI50", "setting": "UACC-62", "result": "> 100 µM (inactive)"},
      {"measurement": "GI50", "setting": "UO-31", "result": "> 100 µM (inactive)"}
    ]}
  ]
}
